{
  "source": "patent US12698534B2",
  "about": "“Systems and methods for characterizing and treating disease” (Arizona Board of Regents on Behalf of the University of …, priority 2019, dated 2026)",
  "molecules": {"B1": {"name": "human LINE-1 ORF1 protein (L1-ORF1p) (other, UniProt Q9UN81 1-338, looked up)", "chain": "MGKKQNRKTGNSKTQSASPPPKERSSSPATEQSWMENDFDELREEGFRRSNYSELREDIQTKGKEVENFEKNLEECITRITNTEKCLKELMELKTKARELREECRSLRSRCDQLEERVSAMEDEMNEMKREGKFREKRIKRNEQSLQEIWDYVKRPNLRLIGVPESDVENGTKLENTLQDIIQENFPNLARQANVQIQEIQRTPQRYSSRRATPRHIIVRFTKVEMKEKMLRAAREKGRVTLKGKPIRLTADLSAETLQARREWGPIFNILKEKNFQPRISYPAKLSFISEGEIKYFIDKQMLRDFVTTRPALKELLKEALNMERNNRYQPLQNHAKM", "notes": "Endogenous protein detected on Western blots of human cell lysates and EV extracts; Seen as a monomer, a dimer and higher multimers"}},
  "key": {"LINE-1 mRNA": {"system": "LINE-1 mRNA", "assay": "LINE-1 mRNA and RNA in cells and exosomes by RT-qPCR", "format": "cell-based, Human", "details": "H460 exosomes", "excerpt": "(§1) Human 460 large cell lung carcinoma cells were authenticated by the UA tissue culture core facility and then cultured in RPMI media (Gibco) supplemented with 10% exosome-free FBS. One day before exposure, cells were counted, seeded, and allowed to attach overnight. Prior to each exposure, medium was removed and cells were washed with PBS to remove cellular debris and extracellular vesicles. After exposure, culture medium was harvested for exosome collection, cells were detached with trypsin-EDTA (Gibco), counted via hemocytometer, and cell viability was assessed using trypan blue exclusion.\n(§2) Nucleic acids were extracted from cell and exosome pellets using the Quick DNA-RNA Miniprep Plus. RNA was subjected to an additional DNAseI digestion on-column (RNA from cells) or prior to reverse transcription (RNA from exosomes; Turbo DNA-free; Invitrogen). Following isolation DNA and RNA quantity and integrity were assessed using the Cytation X system. LINE-1 mRNA was detected in equal volumes of exosome RNA using OneStep RT-qPCR (NEB). To assess cellular LINE-1 mRNA levels, LINE-1 mRNA was normalized to B-Actin mRNA and expressed as a fold change from control using the Pfaffl technique. […] Briefly, the fluorescence units from the reverse transcription control (RTC; no reverse transcriptase enzyme) for each sample was subtracted from the complete sample amplification and the remaining fluorescence units were divided by cell number. The resulting values approximate the amount of LINE-1 or BActin mRNA present in exosomes that is also normalized by cell number. LINE-1 DNA copies were quantified using absolute qPCR quantification. Briefly, known copy numbers of plasmids bearing the LINE-1 sequence were used to create a standard curve, which could then be used to calculated copy number from samples. These copy numbers were then divided by cell number to yield the number of LINE-1 DNA copies per cell (cellular DNA) and the number of exosome LINE-1 DNA copies per cell (exosome DNA)."}, "[1]": {"system": "Human 460 large cell lung carcinoma cells", "assay": "BaP exposure of H460 cells: cell count and trypan blue viability", "format": "cell-based", "details": "for cell number at conclusion of exposure, mean (±SEM): 48 hour", "excerpt": "as §1"}, "[2]": {"system": "H460 large cell lung cancer cells", "assay": "Exosome quantity and size by Nanosight NTA after BaP exposure", "format": "cell-based, Human", "parameters": "number of exosomes released per cell: dose or concentration left out as unconfirmed", "excerpt": "as §1\nCell media was centrifuged at 500×g for 5 minutes to remove cells and large debris and then stored at −80° C. To isolate exosomes, cell medium was centrifuged at 25,000×g for 1.5 hours to remove apoptotic bodies and other large extracellular vesicles. To precipitate exosomes, polyethylene glycol (PEG) MW 6,000 was added to the supernatant to a final concentration of 10% (w/v), and centrifuged again at 15,000×g for 30 minutes. Each exosome pellet was resuspended in 2 mL PBS, which was then subdivided into fractions for Nanosight Nanoparticle Tracking Analysis (NTA), nucleic acid extraction, and protein extraction. Nucleic acids and proteins present outside of exosomes were enzymatically digested to prevent confounding of exosome cargo analysis. Exosome fractions designated for nucleic acid analysis were treated with DNAseI for 30 minutes at 37° C. and RNAseA for 5 minutes at RT and then supplemented with RNA Secure (Invitrogen) prior to lysis. Exosome fractions designated for protein analysis were treated with proteinaseK for 30 minutes at 37° C. Following enzymatic digestion, exosomes were pelleted a final time by addition of PEG 6,000 to 10%, and centrifugation at 15,000×g for 15 minutes. To assess exosome size and quantity, Nanosight NTA was performed. Each sample was read five times and the sample grand mean and standard error for each nanoparticle size bin were reported. Nanosight experiments were performed in technical duplicate. […]"}, "LINE-1": {"system": "LINE-1", "assay": "LINE-1 mRNA and ORF1p in extracellular vesicles of BaP-stimulated H460 cells", "format": "cell-based, human", "details": "48 h, various concentrations", "procedure": "EV isolation: Media were centrifuged at 500×g for 5 min to remove cells and concentrated using a 100 kDa MWCO Amicon filter. Samples were then centrifuged at 25,000×g for 30 min to pellet apoptotic vesicles and cellular debris followed by ultracentrifugation at 100,000×g for 2 h. The EV pellet was washed in PBS and either re-centrifuged at 100,000×g or loaded onto an iodixanol gradient.\nTotal RNA was harvested (Zymo) and subjected to post-elution DNAse digestion. A cDNA was created using oligo d (T) primers. Gene expression analysis was performed via qPCR using probe-based detection. Expression was expressed as a fold change from the EV-free medium (EFM)."}, "[3]": {"system": "Lung tissues in ORFeus^LSL mice", "assay": "Lung histology and general toxicity after intratracheal instillation", "format": "in vivo", "procedure": "A BioLite Intubation System (Braintree Scientific Inc, USA) was used for intratracheal instillation of ORFeus^LSL mice (29-38 g) anesthetized with ketamine and xylazine (100 mg/kg and 10 mg/kg, respectively). All mice were genotyped to confirm genetic identity. Control mice were given one dose of 5×10^10 PFU adenoCRE recombinase dissolved in H2O or DMSO. The optimal adenovirus dose was defined empirically as a dose that only modestly activated the transgene. […] Mice were sacrificed by cervical dislocation after euthanasia with CO2 one-week after treatment. Tissues were collected and stored at 4° C. in RNA later (Thermo Fisher Scientific, CA).\nLung sections were snap-frozen in OCT. Tissues were fixed with cold acetone and stained with hematoxylin and eosin. Samples were evaluated blindly by two pathologists."}, "[4]": {"system": "ORFeus^LSL transgene (human LINE-1)", "assay": "ORFeus LINE-1 mRNA by RT-qPCR in mouse tissues", "format": "in vivo, mice", "procedure": "A BioLite Intubation System (Braintree Scientific Inc, USA) was used for intratracheal instillation of ORFeus^LSL mice (29-38 g) anesthetized with ketamine and xylazine (100 mg/kg and 10 mg/kg, respectively). All mice were genotyped to confirm genetic identity. Control mice were given one dose of 5×10^10 PFU adenoCRE recombinase dissolved in H2O or DMSO. […] Mice were sacrificed by cervical dislocation after euthanasia with CO2 one-week after treatment. Tissues were collected and stored at 4° C. in RNA later (Thermo Fisher Scientific, CA).\nRNA was extracted using the RNeasy Plus Mini Kit (Qiagen, MD). An aliquot of 250 ng RNA was reverse transcribed into first-strand cDNA using SuperScript® III (Invitrogen, CA). RT-qPCR was carried out for LINE-1 and nine genes within its oncogenic regulatory network. […] GAPDH was used as a control. Each reaction included 4.0 μL of cDNA, 0.5 μL of gene-specific primer pairs, and 5.0 μL SyberGreen dye and ddH2O to a final volume of 20 μL. Amplifications were completed using StepOnePlus™ RT-qPCR System and fold changes calculated using 2^−ΔΔct."}, "LINE-1 DNA": {"system": "LINE-1 DNA", "assay": "LINE-1 DNA copies in cells and exosomes by absolute qPCR", "format": "cell-based, Human", "details": "for exosome LINE-1 DNA copies released per cell, mean (±SE): H460 exosomes", "excerpt": "as §1, §2"}, "L1-ORF1p": {"system": "L1-ORF1p", "assay": "L1-ORF1p expression by immunoblotting in lung cells treated with NCL antagonists", "format": "cell-based, human", "procedure": "Cell lines were purchased from the American Type Culture Collection (ATCC). Cells were grown in a humidified environment at 37° C. with 5% CO2. Cell lines were confirmed to be free of mycoplasma contamination (MycoAlert; Lonza). NSCLC cell lines (NCI-H460, NCI-H520, NCI-H1299, and A549) were grown in RPMI medium supplemented with fetal bovine serum at a concentration of 10%, […] penicillin and […] streptomycin (Life Technologies). The human bronchial epithelial cell lines BEAS-2B and BZR were grown in LHC-9 medium (Thermo Fisher Scientific). Verification of all cell line identities was performed by short tandem repeat (STR) sequencing using reference databases from ATCC (Genetics Core, University of Arizona, AZ). […] All protein concentrations were determined using the bicinchoninic acid assay (Thermo Fisher Scientific).\nTotal cell lysates were resolved by SDS-polyacrylamide gel electrophoresis and electrotransferred onto polyvinylidene fluoride membranes (Millipore) in Tris-glycine buffer containing 20% methanol. Proteins were detected by immunoblotting. […]"}, "[5]": {"target": "the molecule itself", "assay": "Western blot of EV iodixanol gradient fractions (self-association)"}},
  "data": [
    {"molecule": "c1ccc2c(c1)cc1ccc3cccc4ccc2c1c34", "note": "[BaP, benzo[a]pyrene]", "values": [
      {"measurement": "exosome LINE-1 mRNA, Pfaffl method normalized to B-Actin mRNA", "setting": "LINE-1 mRNA", "result": "did not observe significant increases"},
      {"measurement": "LINE-1 mRNA export in exosomes per cell", "setting": "LINE-1 mRNA; 0.25 μM", "result": "approximately two-fold"},
      {"measurement": "LINE-1 mRNA export in exosomes per cell", "setting": "LINE-1 mRNA; 0.5 μM", "result": "approximately two-fold"},
      {"measurement": "LINE-1 mRNA export in exosomes per cell", "setting": "LINE-1 mRNA; 1 μM", "result": "decreased export"},
      {"measurement": "quantity of total exosome RNA", "setting": "LINE-1 mRNA; 1 μM", "result": "83.26 ± 16.94", "unit": "ng"},
      {"measurement": "exosome B-Actin mRNA released per cell", "setting": "LINE-1 mRNA; fluorescence units adjusted by cell number", "result": "dose-dependent increases"},
      {"measurement": "cell proliferation", "setting": "[1]; 48 hour exposure", "result": "reduce cell proliferation in a dose-dependent manner"},
      {"measurement": "cell number at conclusion of exposure, mean (±SEM)", "setting": "[1]; 0.5 μM", "result": "14.0±2.3", "unit": "million cells"},
      {"measurement": "cell number at conclusion of exposure, mean (±SEM)", "setting": "[1]; 1 μM", "result": "11.1±1.9", "unit": "million cells"},
      {"measurement": "size range in which more exosomes were produced", "setting": "[2]; 0.25 μM", "result": "64.5 to 71.5", "unit": "nM"},
      {"measurement": "size range in which more exosomes were produced", "setting": "[2]; 1 μM", "result": "61.5 to 77.5", "unit": "nM"},
      {"measurement": "number of exosomes released per cell", "setting": "[2]; particles 30-150 nm normalized to cell number", "result": "increased"},
      {"measurement": "EV LINE-1 levels versus cellular LINE-1 levels", "setting": "LINE-1", "result": "mirrored within EVs"},
      {"measurement": "toxic effects in treated mice", "setting": "[3]; ORFeus^LSL mice, at any time", "result": "No dramatic toxic effects"},
      {"measurement": "lung histology: leukocytic infiltration", "setting": "[3]; mouse, in vivo", "result": "significant leukocytic infiltration into the lungs"},
      {"measurement": "lung histology: vessel congestion and mononuclear cell infiltration", "setting": "[3]; mouse, in vivo", "result": "pulmonary vessel congestion with focal-to-diffuse mononuclear cell infiltration into parenchyma"},
      {"measurement": "ORFeus LINE-1 mRNA expression in lung", "setting": "[4]; male and female lungs, one week after treatment", "result": "significantly increased expression of the transgene"},
      {"measurement": "activation of the LINE-1 transgene in other tissues", "setting": "[4]; stomach, heart, kidney, liver, intestine", "result": "only stomach, but not heart, kidney, liver or intestine, showed activation of the LINE-1 transgene"},
      {"measurement": "cellular LINE-1 DNA copies per cell", "setting": "LINE-1 DNA; H460 cells", "result": "did not significantly change"},
      {"measurement": "exosome LINE-1 DNA copies released per cell, mean (±SE)", "setting": "LINE-1 DNA; 0.25 μM", "result": "61.04±31.3", "unit": "copies"},
      {"measurement": "exosome LINE-1 DNA copies released per cell, mean (±SE)", "setting": "LINE-1 DNA; 0.5 μM", "result": "62.43±28.98", "unit": "copies"},
      {"measurement": "exosome LINE-1 DNA copies released per cell, mean (±SE)", "setting": "LINE-1 DNA; 1 μM", "result": "85.96±51.21", "unit": "copies"}
    ]},
    {"molecule": "5′-GGTGGTGGTGGTTGTGGTGGTGGTGG-3′ (SEQ ID NO:2) (DNA, backbone not given here) [AS1411, oligodeoxynucleotide DNA aptamer targeting nucleolin]", "values": [
      {"measurement": "L1-ORF1p protein expression", "setting": "L1-ORF1p; NCI-H520 cells, high concentrations (20 μM)", "result": "without effect"},
      {"measurement": "L1-ORF1p protein expression", "setting": "L1-ORF1p; any of the cell lines (data not shown)", "result": "without effect"}
    ]},
    {"molecule": "B1", "values": [
      {"measurement": "binding result", "setting": "[5]", "result": "binds"}
    ]}
  ]
}
